{"source": "ChEMBL document CHEMBL6177931", "about": "“Exploring diverse frontiers: Advancements of bioactive 4-aminoquinoline-based molecular hybrids in targeted therapeutics and beyond” (Eur J Med Chem, 2024)", "key": {"[1]": {"assay": "Cytotoxicity against human A375P cells assessed as cell viability incubated for 72 hrs by alamar blue reagent based assay", "assay_type": "functional"}, "[2]": {"system": "Mycobacterium tuberculosis", "assay": "Antitubercular activity against Mycobacterium tuberculosis H37Rv assessed as inhibition of bacterial growth at 250 microg/ml relative to control", "assay_type": "functional"}, "[3]": {"system": "Mycobacterium tuberculosis", "assay": "Antitubercular activity against Mycobacterium tuberculosis H37Rv", "assay_type": "functional"}, "SMMC-7721": {"system": "SMMC-7721", "assay": "Antiproliferative activity against human SMMC-7721 cells assessed as reduction in cell proliferation incubated for 24 hrs by MTT assay", "assay_type": "functional, cell-based", "conditions": "SMMC-7721, 24 h"}, "HepG2": {"system": "HepG2", "assay": "Antiproliferative activity against human HepG2 cells assessed as reduction in cell proliferation incubated for 24 hrs by MTT assay", "assay_type": "functional, cell-based", "conditions": "HepG2, 24 h"}, "[4]": {"assay": "Selectivity index, ratio of IC50 for cytotoxicity against African green monkey Vero cells to IC50 for antiplasmodial activity against D-sorbitol synchronized chloroquine-resistant Plasmodium falciparum W2", "assay_type": "toxicity, cell-based", "conditions": "read-out: Ratio IC50"}, "[5]": {"assay": "Cytotoxicity against MDCK cells assessed as cell growth inhibition incubated for 72 hrs by MTT assay", "assay_type": "toxicity, cell-based, Canis lupus familiaris", "conditions": "dog"}, "[6]": {"assay": "Antiproliferative activity against human Caco-2 cells assessed as cell growth inhibition incubated for 72 hrs by MTT assay", "assay_type": "toxicity, cell-based"}, "Enterococcus faecalis": {"system": "Enterococcus faecalis", "assay": "Antibacterial activity against Enterococcus faecalis ATCC13047", "assay_type": "functional"}, "Klebsiella oxytoca": {"system": "Klebsiella oxytoca", "assay": "Antibacterial activity against Klebsiella oxytoca ATCC8724", "assay_type": "functional"}, "Proteus vulgaris": {"system": "Proteus vulgaris", "assay": "Antibacterial activity against Proteus vulgaris ATCC6380", "assay_type": "functional"}, "Pseudomonas aeruginosa": {"system": "Pseudomonas aeruginosa", "assay": "Antibacterial activity against Pseudomonas aeruginosa", "assay_type": "functional"}, "Staphylococcus aureus": {"system": "Staphylococcus aureus", "assay": "Antibacterial activity against Staphylococcus aureus", "assay_type": "functional"}, "Pseudomonas mevalonii": {"system": "Pseudomonas mevalonii", "assay": "Antibacterial activity against Pseudomonas mevalonii", "assay_type": "functional", "conditions": "Pseudomonas sp. 'mevalonii'"}, "[7]": {"system": "Mycolicibacterium smegmatis", "assay": "Antibacterial activity against Mycobacterium smegmatis", "assay_type": "functional"}, "Bacillus subtilis": {"system": "Bacillus subtilis", "assay": "Antibacterial activity against Bacillus subtilis ATCC19659", "assay_type": "functional"}, "[8]": {"system": "Staphylococcus epidermidis", "assay": "Antibacterial activity against Staphylococcus epidermidis", "assay_type": "functional"}, "Escherichia coli": {"system": "Escherichia coli", "assay": "Antibacterial activity against Escherichia coli ATCC25922", "assay_type": "functional"}, "Candida albicans": {"system": "Candida albicans", "assay": "Antifungal activity against Candida albicans MTCC 183 by agar streak dilution method", "assay_type": "functional"}, "Aspergillus niger": {"system": "Aspergillus niger", "assay": "Antifungal activity Aspergillus niger MTCC 282 by agar streak dilution method", "assay_type": "organism-based"}, "[9]": {"assay": "Cytotoxicity against human Huh-7 cells assessed as reduction in cell viability incubated for 2 days by MTT assay", "assay_type": "toxicity, cell-based", "conditions": "time 2 day"}, "[10]": {"assay": "Inhibition of ConA-induced TNF-alpha secretion in female BALB/c mouse splenocyte incubated for 48 hrs by ELISA", "assay_type": "functional, cell-based"}, "[11]": {"assay": "Inhibition of ConA-induced IL-6 secretion in female BALB/c mouse splenocyte incubated for 48 hrs by ELISA", "assay_type": "functional, cell-based"}, "[12]": {"assay": "Inhibition of ConA-induced IL-1beta secretion in female BALB/c mouse splenocyte incubated for 48 hrs by ELISA", "assay_type": "functional, cell-based"}, "Acetylcholinesterase [13]": {"biological_target": "T1, Acetylcholinesterase (Homo sapiens, UniProt P22303)", "T1 sequence (P22303 whole entry)": "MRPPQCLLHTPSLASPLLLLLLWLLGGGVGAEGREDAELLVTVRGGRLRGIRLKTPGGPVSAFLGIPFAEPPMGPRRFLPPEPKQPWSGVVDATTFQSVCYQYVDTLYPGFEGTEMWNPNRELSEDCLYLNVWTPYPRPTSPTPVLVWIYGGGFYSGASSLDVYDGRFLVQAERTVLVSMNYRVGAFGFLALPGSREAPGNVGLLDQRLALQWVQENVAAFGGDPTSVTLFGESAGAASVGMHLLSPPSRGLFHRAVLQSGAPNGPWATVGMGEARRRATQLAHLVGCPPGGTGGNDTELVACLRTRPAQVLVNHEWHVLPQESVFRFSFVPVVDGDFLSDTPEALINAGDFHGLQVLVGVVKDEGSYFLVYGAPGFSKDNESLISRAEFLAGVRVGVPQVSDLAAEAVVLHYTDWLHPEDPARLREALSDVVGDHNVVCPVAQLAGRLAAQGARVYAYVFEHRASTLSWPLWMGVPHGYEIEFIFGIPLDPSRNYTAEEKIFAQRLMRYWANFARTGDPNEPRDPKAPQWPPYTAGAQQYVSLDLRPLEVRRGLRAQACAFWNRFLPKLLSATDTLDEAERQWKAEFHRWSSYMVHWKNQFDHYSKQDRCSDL", "assay": "Inhibition of human erythrocyte AChE using acetylthiocholine as substrate preincubated for 5 mins followed by substrate addition by Ellman's reagent based spectrophotometric analysis"}, "Cholinesterase [14]": {"biological_target": "T2, Cholinesterase (Homo sapiens, UniProt P06276)", "T2 sequence (P06276 whole entry)": "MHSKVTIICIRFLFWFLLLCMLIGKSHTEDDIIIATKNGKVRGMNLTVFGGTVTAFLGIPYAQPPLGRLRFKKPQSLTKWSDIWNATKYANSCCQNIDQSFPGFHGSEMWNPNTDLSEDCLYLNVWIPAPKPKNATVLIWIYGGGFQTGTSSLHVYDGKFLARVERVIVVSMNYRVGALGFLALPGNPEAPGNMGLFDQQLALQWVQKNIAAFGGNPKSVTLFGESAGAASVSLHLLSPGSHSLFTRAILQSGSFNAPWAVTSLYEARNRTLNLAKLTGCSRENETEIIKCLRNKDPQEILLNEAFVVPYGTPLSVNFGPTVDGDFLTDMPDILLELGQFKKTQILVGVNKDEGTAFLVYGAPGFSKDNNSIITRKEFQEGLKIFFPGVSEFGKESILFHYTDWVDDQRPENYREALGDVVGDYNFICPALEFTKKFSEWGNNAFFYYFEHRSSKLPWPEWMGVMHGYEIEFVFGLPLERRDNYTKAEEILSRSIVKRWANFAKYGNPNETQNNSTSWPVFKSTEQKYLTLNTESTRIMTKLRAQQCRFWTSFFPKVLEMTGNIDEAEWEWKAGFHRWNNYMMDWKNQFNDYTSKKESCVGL", "assay": "Inhibition of human BChE"}, "Jurkat E6.1": {"system": "Jurkat E6.1", "assay": "Cytotoxicity against human Jurkat E6.1 cells assessed as reduction in cell viability incubated for 24 hrs by MTT assay", "assay_type": "functional, cell-based", "conditions": "Jurkat E6.1, 24 h"}, "HL-60": {"system": "HL-60", "assay": "Cytotoxicity against human HL-60 cells assessed as reduction in cell viability incubated for 24 hrs by MTT assay", "assay_type": "functional, cell-based", "conditions": "HL-60, 24 h"}, "[15]": {"system": "Mycobacterium tuberculosis", "assay": "Antitubercular activity against Mycobacterium tuberculosis H37Rv by microplate alamar blue assay", "assay_type": "functional"}, "MCF7": {"system": "MCF7", "assay": "Antiproliferative activity against human MCF7 cells", "assay_type": "functional, cell-based"}, "A549": {"system": "A549", "assay": "Antiproliferative activity against human A549 cells", "assay_type": "functional, cell-based"}, "Acetylcholinesterase [16]": {"biological_target": "T1, Acetylcholinesterase", "assay": "Inhibition of recombinant human AchE by Ellman's reagent based spectrophotometric analysis"}, "Cholinesterase [17]": {"biological_target": "T2, Cholinesterase", "assay": "Inhibition of human BchE by Ellman's reagent based spectrophotometric analysis"}}, "note": "pIC50, pKi: −log10 of the molar value.", "data": [{"compound": "CN(CCCCN(C)CCCNc1ccnc2cc(Cl)ccc12)CCCNc1ccnc2cc(Cl)ccc12", "values": [{"measurement": "pIC50", "setting": "[1]", "value": 6.57}]}, {"compound": "O=C(NNc1ccnc2cc(Cl)ccc12)c1cc(-c2ccccc2)nc2ccccc12", "values": [{"measurement": "inhibition at 250 µg/mL", "setting": "[2]", "value": 99, "unit": "%"}, {"measurement": "MIC", "setting": "[3]", "value": 38, "unit": "µM"}]}, {"compound": "COc1ccc(/C=N/NC(=O)c2ccc(Nc3ccnc4ccccc34)cc2)cc1OC", "values": [{"measurement": "pIC50", "setting": "SMMC-7721", "value": 5.02}, {"measurement": "pIC50", "setting": "HepG2", "value": 4.90}]}, {"compound": "O=C1c2ccc(N3CCN(CCO)CC3)cc2C(=O)N1CCCNc1ccnc2cc(Cl)ccc12", "values": [{"measurement": "selectivity ratio", "setting": "[4]", "value": "> 4200"}]}, {"compound": "Clc1ccc2c(N3CCN(c4ccc(-c5nc6ccccc6[nH]5)cc4)CC3)ccnc2c1", "values": [{"measurement": "IC50 at 72 h", "setting": "[5]", "value": "> 100000", "unit": "nM"}, {"measurement": "GI50 at 72 h", "setting": "[6]", "value": "> 100000", "unit": "nM"}]}, {"compound": "CC1(C)CC[C@]2(C(=O)OCCOCCNc3ccnc4ccc(Cl)cc34)CC[C@]3(C)C(=CC[C@@H]4[C@@]5(C)CC[C@H](O)C(C)(C)[C@@H]5CC[C@]43C)[C@@H]2C1", "values": [{"measurement": "MIC", "setting": "Enterococcus faecalis", "value": 1250, "unit": "µg/mL"}, {"measurement": "MIC", "setting": "Klebsiella oxytoca", "value": 2500, "unit": "µg/mL"}, {"measurement": "MIC", "setting": "Proteus vulgaris", "value": 2500, "unit": "µg/mL"}, {"measurement": "MIC", "setting": "Pseudomonas aeruginosa", "value": 2500, "unit": "µg/mL"}, {"measurement": "MIC", "setting": "Staphylococcus aureus", "value": 2500, "unit": "µg/mL"}, {"measurement": "MIC", "setting": "Pseudomonas mevalonii", "value": 1250, "unit": "µg/mL"}, {"measurement": "MIC", "setting": "[7]", "value": 1250, "unit": "µg/mL"}, {"measurement": "MIC", "setting": "Bacillus subtilis", "value": 2500, "unit": "µg/mL"}, {"measurement": "MIC", "setting": "[8]", "value": 2500, "unit": "µg/mL"}, {"measurement": "MIC", "setting": "Escherichia coli", "value": 1250, "unit": "µg/mL"}]}, {"compound": "CCCCCOc1ccc(/C=N/Nc2cc(C)nc3ccc(Cl)cc23)cc1", "values": [{"measurement": "MIC", "setting": "Candida albicans", "value": 25, "unit": "µg/mL"}, {"measurement": "MIC", "setting": "Aspergillus niger", "value": 12.5, "unit": "µg/mL"}]}, {"compound": "O=C(N/N=C/c1nc2ccccc2[nH]1)c1ccc(Nc2ccnc3ccccc23)cc1", "values": [{"measurement": "pIC50", "setting": "HepG2", "value": "< 4.10"}]}, {"compound": "CCN(CCCC(C)Nc1ccnc2cc(Cl)ccc12)CCNC(=O)C(F)(F)C1CCN(C(=O)C2OC(OC)C3OC(C)(C)OC23)CC1", "note": "(configuration not stated)", "values": [{"measurement": "CC50 at 48 h", "setting": "[9]", "value": 16900, "unit": "nM"}, {"measurement": "pIC50", "setting": "[10]", "value": 5.36}, {"measurement": "pIC50", "setting": "[11]", "value": 5.73}, {"measurement": "pIC50", "setting": "[12]", "value": 5.92}]}, {"compound": "CCN(CCCC(C)Nc1ccnc2cc(Cl)ccc12)CCNC(=O)C(F)(F)C1CCN(CC(O)C(F)(F)F)CC1", "note": "(configuration not stated)", "values": [{"measurement": "CC50 at 48 h", "setting": "[9]", "value": 16700, "unit": "nM"}, {"measurement": "pIC50", "setting": "[10]", "value": 4.80}, {"measurement": "pIC50", "setting": "[11]", "value": 5.80}, {"measurement": "pIC50", "setting": "[12]", "value": 6.14}]}, {"compound": "CC(C)(C)c1ccc(CNCCNc2c3c(nc4ccccc24)CCCCC3)c(C(C)(C)C)c1O", "values": [{"measurement": "pIC50", "setting": "Acetylcholinesterase [13]", "value": 5.72}, {"measurement": "pIC50", "setting": "Cholinesterase [14]", "value": 7.08}]}, {"compound": "CCN(CCO)CCCC(C)Nc1ccnc2cc(Cl)ccc12", "note": "(configuration not stated) [HYDROXYCHLOROQUINE]", "values": [{"measurement": "pIC50", "setting": "[10]", "value": 5.00}, {"measurement": "pIC50", "setting": "[11]", "value": 4.78}, {"measurement": "pIC50", "setting": "[12]", "value": 5.45}]}, {"compound": "Clc1ccc(C2CC(c3ccc(Nc4ccnc5cc(Cl)ccc45)cc3)=NN2)cc1", "note": "(configuration not stated)", "values": [{"measurement": "pIC50", "setting": "Jurkat E6.1", "value": 5.20}, {"measurement": "pIC50", "setting": "HL-60", "value": 5.21}]}, {"compound": "Cc1ccc(S(=O)(=O)NCCCCCNc2c3c(nc4ccccc24)CCCC3)cc1", "values": [{"measurement": "pIC50", "setting": "Acetylcholinesterase [13]", "value": 7.21}, {"measurement": "pIC50", "setting": "Cholinesterase [14]", "value": 7.17}]}, {"compound": "CO[C@H]1/C=C/O[C@@]2(C)Oc3c(C)c(O)c4c(O)c(c(/C=N/N5CCN(C)CC5)c(O)c4c3C2=O)NC(=O)/C(C)=C\\C=C\\[C@H](C)[C@H](O)[C@@H](C)[C@@H](O)[C@@H](C)[C@H](OC(C)=O)[C@@H]1C", "note": "[RIFAMPIN]", "values": [{"measurement": "inhibition at 250 µg/mL", "setting": "[2]", "value": 98, "unit": "%"}]}, {"compound": "COc1ccc(/C=C/C(=N/NC(N)=O)c2ccc(Nc3ccnc4cc(Cl)ccc34)cc2)cc1OC", "values": [{"measurement": "MIC", "setting": "[15]", "value": 1.56, "unit": "µM"}]}, {"compound": "CC(C)(C)c1ccc(/C=N/CCNc2c3c(nc4ccccc24)CCCCC3)c(C(C)(C)C)c1O", "values": [{"measurement": "pIC50", "setting": "Acetylcholinesterase [13]", "value": 5.39}, {"measurement": "pIC50", "setting": "Cholinesterase [14]", "value": 6.38}]}, {"compound": "C=CC1(O)c2ccccc2Nc2c1c(-n1ccnc1)nc1ccc(Br)cc21", "note": "(configuration not stated)", "values": [{"measurement": "pIC50", "setting": "MCF7", "value": 6.27}, {"measurement": "pIC50", "setting": "A549", "value": 6.16}]}, {"compound": "COc1cc(/C=C/C(=O)c2cccc(Nc3ccnc4cc(Cl)ccc34)c2)cc(OC)c1OC", "values": [{"measurement": "pIC50", "setting": "Jurkat E6.1", "value": 5.71}, {"measurement": "pIC50", "setting": "HL-60", "value": 5.67}]}, {"compound": "Clc1ccc2c(NCCNC34CC5CC(CC(C5)C3)C4)ccnc2c1", "values": [{"measurement": "pKi", "setting": "Acetylcholinesterase [16]", "value": 5.80}, {"measurement": "pKi", "setting": "Cholinesterase [17]", "value": 6.04}]}, {"compound": "Cc1ccc(S(=O)(=O)NCCCCNc2c3c(nc4ccccc24)CCCC3)cc1", "values": [{"measurement": "pIC50", "setting": "Cholinesterase [14]", "value": 6.88}]}, {"compound": "Clc1ccc2c(NCCCCCCCCNC34CC5CC(CC(C5)C3)C4)ccnc2c1", "values": [{"measurement": "pKi", "setting": "Acetylcholinesterase [16]", "value": 7.12}, {"measurement": "pKi", "setting": "Cholinesterase [17]", "value": 7.04}]}, {"compound": "NC(=O)N/N=C(/C=C/c1ccc(Br)cc1)c1ccc(Nc2ccnc3cc(Cl)ccc23)cc1", "values": [{"measurement": "MIC", "setting": "[15]", "value": 1.56, "unit": "µM"}]}]}
